Laboratory results published in paper PMC4879785, “GintAMT3 – a Low-Affinity Ammonium Transporter of the Arbuscular Mycorrhizal Rhizophagus irregularis” (Frontiers in Plant Science, 2016).

B1: GintAMT3 (Rhizophagus irregularis) (protein)
chain: MSETSQPSQFKEGDIAWMLTSTAFVWLMIPGVGYFYSGMARSKNALSLILFCFLCVPVVAMQWFIWGYSLSFSRTGGLFIGNLRNAFFMNVRGEPTLKAESLPEIVHAIYQGMFAAITPSLAIGAAAERARMLPLLVFIFVWSTLVYDVIACWIWSANGWFKTIEGLDFAGGTPVHIASGAAALAYCVVLGKRHGHGRDEFKPHNNVNVILGTVFLWFGWFGFNGGSAFGANTRAAMAIMVTNTAASFGGLAWMLMDYRLERKFSALGFCSGAVAGLVCITPASGYVSPPVSVLFGITGGIACNLAVKLKHILDFDDALDVFAVHAVGGVAGNTLLGIFADKEMAALNGEIIHGGAIDGHSVQLGYQIASSIAGLTYSFCISALILYVMDRIPCLKLRMEPDEEEIGTDETELGEPAYYFLDRVVASIQVQIASKTMSSPQQTQLQSIDHIHYS

Columns and labels:
GintAMT1 = target: T1, GintAMT1 (Rhizophagus intraradices, UniProt A2Q6J0); conditions: starting ammonium printed as 1 mM and 2 mM (Figure 5 legend)
T1 construct: gene AMT1

GintAMT2 = target: T2, GintAMT2 (Rhizophagus intraradices, UniProt F8K9Q4); conditions: starting ammonium printed as 1 mM and 2 mM (Figure 5 legend)
T2 construct: gene amt2

[1] = substrate: CN; assay: cells, lysate or membranes; type: cell-based, Rhizophagus irregularis; conditions: pH 5, 50 mM KH2PO4, 20 mM glucose, 30 °C, labelled compound, 0-15 mM substrate, Hanes-Woolf plot

T1 sequence (A2Q6J0 1-479): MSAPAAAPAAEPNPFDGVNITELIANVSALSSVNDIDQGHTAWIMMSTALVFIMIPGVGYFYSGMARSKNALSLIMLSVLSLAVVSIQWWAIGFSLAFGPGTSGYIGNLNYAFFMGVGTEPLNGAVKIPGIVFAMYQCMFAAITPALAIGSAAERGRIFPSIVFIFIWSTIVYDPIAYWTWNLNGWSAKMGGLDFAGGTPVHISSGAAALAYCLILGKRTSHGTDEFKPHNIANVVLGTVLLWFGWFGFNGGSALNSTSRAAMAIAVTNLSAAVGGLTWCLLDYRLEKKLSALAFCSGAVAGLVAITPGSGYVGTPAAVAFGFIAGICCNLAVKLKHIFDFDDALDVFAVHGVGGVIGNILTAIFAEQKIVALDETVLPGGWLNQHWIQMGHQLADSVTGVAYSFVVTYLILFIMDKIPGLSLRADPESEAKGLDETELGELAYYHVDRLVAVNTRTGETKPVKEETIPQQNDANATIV
T2 sequence (F8K9Q4 1-470): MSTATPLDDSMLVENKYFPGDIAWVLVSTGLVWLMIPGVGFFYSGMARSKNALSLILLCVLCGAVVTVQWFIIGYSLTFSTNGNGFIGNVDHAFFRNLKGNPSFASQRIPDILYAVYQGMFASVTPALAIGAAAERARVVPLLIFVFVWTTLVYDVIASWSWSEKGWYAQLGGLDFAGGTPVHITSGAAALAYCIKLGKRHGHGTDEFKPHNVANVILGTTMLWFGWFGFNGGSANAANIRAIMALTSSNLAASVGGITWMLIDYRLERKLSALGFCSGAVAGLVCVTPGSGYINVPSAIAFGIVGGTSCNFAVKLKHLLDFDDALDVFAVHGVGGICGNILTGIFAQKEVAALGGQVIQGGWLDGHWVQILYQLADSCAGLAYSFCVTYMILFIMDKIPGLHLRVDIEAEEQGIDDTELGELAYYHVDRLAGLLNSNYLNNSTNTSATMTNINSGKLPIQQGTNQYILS

Molecule | ammonium removal from medium by yeast (GintAMT1) | ammonium removal from medium by yeast (GintAMT2) | Km [1]
N [ammonium] | Yeast cells expressing ScMEP1 and GintAMT1 took up ammonium quite rapidly. | GintAMT2 and GintAMT3 expressing cells imported ammonium at a slower rate | –
B1 | – | – | 1.8 mM
